The record followed here is ChEMBL document CHEMBL1201862, “PubChem BioAssay data set” (2004).

Holding throughout (format): functional
In experiment [1] the target is T1, Protein RecA (Mycobacterium tuberculosis, UniProt P9WHJ3).
T1 sequence (P9WHJ3 whole entry): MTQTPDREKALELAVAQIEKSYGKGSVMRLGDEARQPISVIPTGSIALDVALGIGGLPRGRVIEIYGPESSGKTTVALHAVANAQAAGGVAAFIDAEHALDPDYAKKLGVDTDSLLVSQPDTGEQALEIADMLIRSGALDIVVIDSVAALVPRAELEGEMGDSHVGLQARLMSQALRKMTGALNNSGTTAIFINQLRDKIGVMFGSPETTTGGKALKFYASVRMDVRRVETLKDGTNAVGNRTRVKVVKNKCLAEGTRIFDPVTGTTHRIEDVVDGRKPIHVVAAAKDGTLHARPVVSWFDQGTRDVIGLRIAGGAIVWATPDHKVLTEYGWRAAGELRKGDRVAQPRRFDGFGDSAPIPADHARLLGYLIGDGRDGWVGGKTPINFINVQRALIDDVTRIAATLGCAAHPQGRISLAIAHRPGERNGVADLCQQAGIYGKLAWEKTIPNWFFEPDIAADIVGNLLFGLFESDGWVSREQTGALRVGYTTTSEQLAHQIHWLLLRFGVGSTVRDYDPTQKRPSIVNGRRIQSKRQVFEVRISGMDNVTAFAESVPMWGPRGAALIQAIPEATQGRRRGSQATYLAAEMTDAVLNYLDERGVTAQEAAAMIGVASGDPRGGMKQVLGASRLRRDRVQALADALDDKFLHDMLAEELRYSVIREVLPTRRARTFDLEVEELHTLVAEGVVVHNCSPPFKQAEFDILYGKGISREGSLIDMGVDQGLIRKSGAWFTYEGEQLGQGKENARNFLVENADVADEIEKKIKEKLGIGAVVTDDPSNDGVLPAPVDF
In words: Fluorescence Cell-Free Homogeneous Dose Retest to Identify Inhibitors of RecA-Intein Splicing Activity. [Related pubchem assays (depositor defined):AID2097, AID2223, AID489010, AID492950].

For experiment [2], the target named is T2, Sentrin-specific protease 7 (Homo sapiens, UniProt Q9BQF6).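 Note: Luminescence-based dose-response confirmation of ultra-high-throughput screening hits, measuring inhibition of SENP7.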
T2 sequence (Q9BQF6 whole entry): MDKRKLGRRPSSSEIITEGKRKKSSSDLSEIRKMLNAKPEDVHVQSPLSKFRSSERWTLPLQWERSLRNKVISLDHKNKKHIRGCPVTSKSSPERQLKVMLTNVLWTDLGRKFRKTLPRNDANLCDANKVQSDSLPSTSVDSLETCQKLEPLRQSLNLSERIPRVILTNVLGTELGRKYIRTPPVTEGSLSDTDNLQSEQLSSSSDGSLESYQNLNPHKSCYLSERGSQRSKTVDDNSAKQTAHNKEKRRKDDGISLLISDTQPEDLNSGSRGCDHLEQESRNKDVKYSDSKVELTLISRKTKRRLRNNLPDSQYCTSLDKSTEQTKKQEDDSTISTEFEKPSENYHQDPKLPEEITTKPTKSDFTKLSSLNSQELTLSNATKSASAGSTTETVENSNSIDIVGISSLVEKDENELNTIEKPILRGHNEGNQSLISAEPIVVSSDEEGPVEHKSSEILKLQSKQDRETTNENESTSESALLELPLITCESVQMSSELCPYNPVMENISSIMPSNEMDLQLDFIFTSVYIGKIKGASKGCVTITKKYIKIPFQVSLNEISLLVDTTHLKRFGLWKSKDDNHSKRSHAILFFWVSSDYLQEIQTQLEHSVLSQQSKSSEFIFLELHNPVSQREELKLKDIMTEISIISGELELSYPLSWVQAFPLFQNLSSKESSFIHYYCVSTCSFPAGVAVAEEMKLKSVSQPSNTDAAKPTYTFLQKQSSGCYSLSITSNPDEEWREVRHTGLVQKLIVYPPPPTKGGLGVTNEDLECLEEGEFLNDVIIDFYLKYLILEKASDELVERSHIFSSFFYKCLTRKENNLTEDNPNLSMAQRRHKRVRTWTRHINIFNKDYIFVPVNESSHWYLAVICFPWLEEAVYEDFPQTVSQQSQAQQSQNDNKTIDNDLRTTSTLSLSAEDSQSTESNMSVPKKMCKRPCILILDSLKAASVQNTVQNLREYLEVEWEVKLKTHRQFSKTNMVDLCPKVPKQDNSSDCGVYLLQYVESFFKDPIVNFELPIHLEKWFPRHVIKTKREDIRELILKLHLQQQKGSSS

Experiment [3] has as its target T3, Sentrin-specific protease 6 (Homo sapiens, UniProt Q9GZR1).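 Note: Luminescence-based dose-response confirmatory assay of SENP6 inhibition, following up an ultra-high-throughput screen.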
T3 sequence (Q9GZR1 whole entry): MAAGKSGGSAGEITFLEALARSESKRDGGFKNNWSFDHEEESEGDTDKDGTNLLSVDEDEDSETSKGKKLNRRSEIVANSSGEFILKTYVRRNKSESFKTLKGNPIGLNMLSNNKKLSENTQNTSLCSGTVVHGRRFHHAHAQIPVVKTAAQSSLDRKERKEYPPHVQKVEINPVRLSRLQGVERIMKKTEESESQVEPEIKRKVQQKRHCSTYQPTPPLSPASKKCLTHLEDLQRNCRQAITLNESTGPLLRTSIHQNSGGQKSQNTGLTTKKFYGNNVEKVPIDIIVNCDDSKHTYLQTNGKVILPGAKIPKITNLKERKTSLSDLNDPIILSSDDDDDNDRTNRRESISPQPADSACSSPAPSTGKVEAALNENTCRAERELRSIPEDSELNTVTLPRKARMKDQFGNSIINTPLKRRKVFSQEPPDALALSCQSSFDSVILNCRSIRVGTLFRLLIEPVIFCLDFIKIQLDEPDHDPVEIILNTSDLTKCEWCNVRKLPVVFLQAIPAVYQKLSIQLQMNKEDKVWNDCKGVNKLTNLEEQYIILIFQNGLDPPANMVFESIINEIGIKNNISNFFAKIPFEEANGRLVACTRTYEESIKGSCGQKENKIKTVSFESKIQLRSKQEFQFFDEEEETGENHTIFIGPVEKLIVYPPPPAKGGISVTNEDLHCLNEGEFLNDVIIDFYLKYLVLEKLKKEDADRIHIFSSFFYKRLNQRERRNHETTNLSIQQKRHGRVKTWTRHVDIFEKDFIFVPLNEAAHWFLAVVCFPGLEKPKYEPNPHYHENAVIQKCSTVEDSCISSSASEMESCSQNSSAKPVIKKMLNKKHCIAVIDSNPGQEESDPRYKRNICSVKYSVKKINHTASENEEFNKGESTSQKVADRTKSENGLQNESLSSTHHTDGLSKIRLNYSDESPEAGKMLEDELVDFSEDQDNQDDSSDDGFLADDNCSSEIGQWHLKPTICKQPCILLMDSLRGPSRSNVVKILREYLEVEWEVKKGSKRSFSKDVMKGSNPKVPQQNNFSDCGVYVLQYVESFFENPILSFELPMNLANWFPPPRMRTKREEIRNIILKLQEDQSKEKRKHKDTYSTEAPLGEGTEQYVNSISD

Calls of active or inactive are those of the source. Cut-off read from the data, not from the text of the source, for most assays here: actives have a measured IC50 and inactives only a lower limit.

With `Cc1nn(-c2ccccc2)c(Cl)c1CN(C(=O)CCl)c1ccc(Cl)cc1`, the EC50 in experiment [1] is 0.355 µM (active).

For `Oc1ccccc1/C=C/c1noc(-c2ccccc2O)n1`, the IC50 in experiment [2] is 3.46 µM (active); in experiment [3], > 100 µM (inactive).

Consider `Cc1cccc(N=Nc2ccc(N(C)C)cc2)c1`, for which the values for the half-inhibitory concentration (IC50) in experiment [2] and in experiment [3] were 2.52 µM (active) and 4.4 µM (active), respectively.

Turning to `O=C(O)CSc1cc(NS(=O)(=O)c2ccc(Cl)cc2)c2ccccc2c1O`, in experiment [1], the EC50 is 2.39 µM (active).

`COc1ccccc1N1C(=O)Cc2ccccc2C1=O`: the values for the half-maximal inhibitory concentration (IC50) in experiment [2] and in experiment [3] were 31.2 µM (active) and 10.6 µM (active), respectively. The concentration for a half-maximal effect (EC50) in experiment [1] was 9.77 µM (active).
